The target of data set [1] is T1, electric eel acetylcholinesterase (eeAChE) (Electrophorus electricus, UniProt O42275). Put plainly: biochemical. The class given is biochemical. The arrangement: purchased Sigma, St. Louis, MO, USA. Particulars: for Ki: three substrate concentrations (0.125, 0.25, 0.5 mM). How it is done: (§1) Cholinesterase activities were measured by the Ellman method adapted for microtiter plates, as described in Ristovski et al.. Stock solutions of the prepared ruthenium compounds (1 mg/mL) or neostigmine bromide (Sigma-Aldrich, St. Louis, MO, USA) as a positive control were prepared in 100% ethanol and progressively diluted in 100 mM potassium phosphate buffer (pH 7.4) to a final volume of 50 µL. Then, 1 mM acetylthiocholine chloride and 0.5 mM 5,5′-dithiobis-2-nitrobenzoic acid were dissolved in the same buffer and added to the wells of the microtiter plates to the final volume of 150 μL. Electric eel acetylcholinesterase (eeAChE) or horse serum BChE (hsBuChE) (both Sigma, St. Louis, MO, USA) were dissolved in the same buffer to 0.0075 U/mL. Fifty μL of each of the cholinesterases was added to start the reactions, which were followed spectrophotometrically at 405 nm and 25 °C for 5 min using a kinetic microplate reader (Dynex Technologies, Chantilly, VA, USA). Blank reactions without the inhibitors were run in the presence of the appropriate dilution of ethanol. Every measurement was repeated at least three times. For determination of the inhibitory constants, the kinetics were monitored using three different final substrate concentrations (0.125, 0.25, 0.5 mM).
T1 sequence (O42275 24-633): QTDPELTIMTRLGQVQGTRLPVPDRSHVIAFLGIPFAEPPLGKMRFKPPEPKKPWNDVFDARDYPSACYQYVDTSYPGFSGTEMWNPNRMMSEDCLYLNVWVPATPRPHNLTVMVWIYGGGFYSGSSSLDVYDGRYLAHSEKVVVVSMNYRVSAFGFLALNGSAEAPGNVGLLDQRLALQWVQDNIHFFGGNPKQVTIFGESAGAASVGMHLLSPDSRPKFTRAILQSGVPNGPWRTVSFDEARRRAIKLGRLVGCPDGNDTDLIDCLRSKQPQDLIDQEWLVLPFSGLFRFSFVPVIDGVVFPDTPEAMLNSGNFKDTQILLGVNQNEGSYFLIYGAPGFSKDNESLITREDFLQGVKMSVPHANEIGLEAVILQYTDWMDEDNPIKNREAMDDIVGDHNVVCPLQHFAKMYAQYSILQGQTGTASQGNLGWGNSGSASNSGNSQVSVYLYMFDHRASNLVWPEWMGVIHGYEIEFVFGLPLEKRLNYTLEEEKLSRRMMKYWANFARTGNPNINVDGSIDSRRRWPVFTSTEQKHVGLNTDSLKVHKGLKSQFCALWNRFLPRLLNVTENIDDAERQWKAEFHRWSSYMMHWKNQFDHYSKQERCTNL

Data set [2] has as its target T2, horse serum butyrylcholinesterase (hsBuChE) (Equus caballus, UniProt P81908). As to the kind of experiment: biochemical. The class given is biochemical. The arrangement: purchased Sigma, St. Louis, MO, USA; host or cells: horse serum. Particulars: for Ki: three substrate concentrations (0.125, 0.25, 0.5 mM). How it is done: as §1
The conditions of data set [3]: cited from earlier work.
Data set [4] deals with glutathione-S-transferase. Particulars: cited from earlier work.
For data set [5], the system named is HUVEC cells. Particulars: non-cancer cells; cited from earlier work.
For data set [6], the system named is NHEK-1 cells. Particulars: non-cancer cells; cited from earlier work.
Data set [7] has as its system neuromuscular transition. Particulars: at pharmaceutically relevant concentrations; cited from earlier work.
For data set [8], the system named is human serum albumin. Particulars: cited from earlier work.
For data set [9], the system named is immunoglobulins G. Particulars: human serum; cited from earlier work.
In data set [10] the target is T1, electric eel acetylcholinesterase (eeAChE). Particulars: read-out: eeAChE IC50; previously reported; cited from earlier work.
The target in data set [11] is T2, horse serum butyrylcholinesterase (hsBuChE). Particulars: read-out: hsBuChE IC50; previously reported; cited from earlier work.
Data set [12] relates to human AChE (hAChE). Particulars: read-out: hAChE IC50; previously reported; cited from earlier work.
The conditions of data set [13]: phosphate buffer solution, cultural media RPMI and FP-RPMI, plasma; cited from earlier work.
Data set [14] can be described thus: ESI-MS stability in solution. Particulars: positive ion mode, direct infusion; immediately before measurement and after three days.
Data set [15] is described as follows: 1H NMR stability in aqueous media. How it is done: All assays were carried out immediately after the solution preparation.
Where [16] appears, read: concentration inducing 50% inhibition of enzyme activity, mean ± SEM of three independent measurements, / = no activity, read-out: eeAChE IC50.
Setting [17] is: concentration inducing 50% inhibition of enzyme activity, mean ± SEM of three independent measurements, / = no activity, read-out: hsBuChE IC50.
[18] abbreviates: read-out: eeAChE IC50, concentration inducing 50% inhibition of enzyme activity, mean ± SEM of three independent measurements, / = no activity.
Where [19] appears, read: read-out: hsBuChE IC50, concentration inducing 50% inhibition of enzyme activity, mean ± SEM of three independent measurements, / = no activity.

Like-named read-outs stand apart in the source and are kept apart here.

T2 sequence (P81908 whole entry): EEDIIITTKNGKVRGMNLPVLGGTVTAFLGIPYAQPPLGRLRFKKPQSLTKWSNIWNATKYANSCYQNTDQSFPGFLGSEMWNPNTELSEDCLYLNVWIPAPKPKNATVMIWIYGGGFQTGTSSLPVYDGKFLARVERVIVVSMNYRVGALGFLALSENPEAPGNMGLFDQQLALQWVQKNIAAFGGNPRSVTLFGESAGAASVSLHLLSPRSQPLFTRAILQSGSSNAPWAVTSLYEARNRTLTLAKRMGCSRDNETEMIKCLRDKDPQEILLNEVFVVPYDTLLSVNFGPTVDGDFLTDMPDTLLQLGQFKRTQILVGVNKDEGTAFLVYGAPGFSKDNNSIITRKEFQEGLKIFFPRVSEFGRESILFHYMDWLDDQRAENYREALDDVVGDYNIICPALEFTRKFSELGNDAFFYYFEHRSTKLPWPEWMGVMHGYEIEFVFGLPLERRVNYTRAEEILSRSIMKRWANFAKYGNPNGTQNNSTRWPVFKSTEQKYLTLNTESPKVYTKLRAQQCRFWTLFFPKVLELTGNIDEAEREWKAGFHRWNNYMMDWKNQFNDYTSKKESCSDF

Regarding `Cc1ccc(C(C)C)cc1.Cc1ccn([O-])c(=S)c1.[Cl-].[Ru+2]` [Compound 1c], the figures for the half-inhibitory concentration (IC50) in [1] (setting [16]) and in data set [2] (setting [17]) were 9.5 ± 1.1 µM and 2.7 ± 0.8 µM, respectively. Besides, the Ki is 8.5 µM in data set [1] and 0.9 µM in data set [2].
`Cc1ccc(C(C)C)cc1.[Cl][Ru+].[O-]n1ccccc1=S` [Compound 1a]: in data set [3], the “stability in D2O solution containing NaCl” value is “confirmed the stability”. The “stability in DMSO-d6/D2O (1H NMR)” value in data set [3] is “stable”. In data set [4], the “inhibition of glutathione-S-transferase” value is given as “inhibited”. The “cytotoxicity against HUVEC cells” value in data set [5] is reported as “no cytotoxicity”. For the same molecule, the “cytotoxicity against NHEK-1 cells” value in data set [6] is listed as “no cytotoxicity”. In data set [7], the “physiological response on the neuromuscular transition” value is recorded as “did not express any unwanted physiological response”. The “fraction interacting with human serum albumin” value in [8] was 70%. For the same molecule, the fraction remaining unbound in [8] is given as 25%. Further, in data set [9], the “fraction interacting with immunoglobulins G” value is 5%. Further, the IC50 in data set [10] was 5.01 µM; in [11], 7.52 µM; in data set [12] it was 25.1 µM; in data set [1] (setting [16]), 7.8 ± 0.8 µM; in data set [2] (setting [17]), 2.3 ± 0.1 µM. In addition, the figures for the Ki in data set [1] and in data set [2] were 15.1 µM and 0.5 µM, respectively.
For the molecule `Cc1ccc(C(C)C)cc1.Cc1cccn([O-])c1=S.[Cl-].[Ru+2]` [Compound 1b], in [13], the “stability in aqueous media (UV-Vis)” value is listed as “stable”. For the same molecule, the “stability in aqueous solution (ESI-MS, [M − Cl]+ ion)” value in [14] is reported as “same spectrum”. Also, the IC50 amounted to 10.5 ± 0.7 µM in [1] (setting [16]) and 1.2 ± 0.02 µM in [2] (setting [17]). Further, the results for the Ki in data set [1] and in data set [2] were 9.7 µM and 0.4 µM, respectively.
Consider `Cc1ccn(O)c(=S)c1` [c], for which the IC50 in data set [1] (read-out: eeAChE IC50) and in data set [2] (read-out: hsBuChE IC50) was greater than 100 µM throughout.
`Cc1ccc(=S)n([O-])c1.Cc1ccc(C(C)C)cc1.[Cl-].[Ru+2]` [Compound 1d]: the IC50 was 6.6 ± 0.5 µM in data set [1] (setting [16]) and 1.9 ± 0.4 µM in [2] (setting [17]). Further, the results for the Ki in data set [1] and in data set [2] were 9.7 µM and 0.4 µM, respectively.
For “[(η^6-p-Cymene)Ru(1-hydroxyquinoline-2-(1H)-thionato)Cl] [Compound 1g]”, in that order: 4.9 ± 0.1 µM, 0.2 ± 0.05 µM, 5.6 µM and 0.2 µM.
In the case of `Cc1cccc(=S)n1O` [e], the IC50 in [1] (setting [18]) and in [2] was greater than 100 µM throughout.
In the case of `Cc1cccn(O)c1=S` [b], the half-inhibitory concentration (IC50) in data set [1] (setting [18]) and in data set [2] (setting [19]) was greater than 100 µM throughout.
Consider `On1ccc2ccccc2c1=S` [f, 2-Hydroxyisoquinoline-1-(2H)-thione], for which the IC50 in data set [1] (setting [18]) and in data set [2] (setting [19]) was greater than 100 µM throughout.
For `CN(C)C(=O)Oc1cccc([N+](C)(C)C)c1` [Neostigmine bromide, reference compound], the IC50 is 4.3 ± 0.8 µM in data set [1] and 37.3 ± 4.2 µM in [2].
For the molecule “[(η^6-p-Cymene)Ru(2-hydroxyisoquinoline-3-(2H)-thionato)Cl] [Compound 1h]”, the results for the IC50 in [1] (setting [16]) and in data set [2] (setting [17]) were 14.3 ± 2 µM and 0.7 ± 0.1 µM, respectively. Also, the values for the Ki in data set [1] and in [2] were 20.1 µM and 0.2 µM, respectively.
Take `Cc1ccc(=S)n(O)c1` [d]: the half-inhibitory concentration (IC50) in [1] (setting [18]) and in [2] (setting [19]) was greater than 100 µM throughout.
As for `Cc1ccc(C(C)C)cc1.[Cl][Ru+].[O-]n1ccc2ccccc2c1=S` [Compound 1f, [(η^6-p-Cymene)Ru(2-hydroxyisoquinoline-1-(2H)-thionato)Cl]], the figures for the IC50 in [1] (setting [16]) and in data set [2] (setting [17]) were 8.1 ± 0.5 µM and 1.3 ± 0.1 µM, respectively. The Ki in [1] came out at 12.3 µM; in [2], 0.4 µM.
As to `On1c(=S)ccc2ccccc21` [g, 1-Hydroxyquinoline-2-(1H)-thione], the concentration for half-maximal inhibition (IC50) in [1] (setting [16]) and in data set [2] (setting [17]) was greater than 100 µM in each case.
For the molecule `On1cc2ccccc2cc1=S` [h, 2-Hydroxyisoquinoline-3-(2H)-thione], the “activity against eeAChE (in words)” value in data set [1] is “poorly active”. Also, the IC50 in [1] (setting [16]) is greater than 100 µM; in data set [2] (setting [17]) it was 53 µM. In addition, the “activity against hsBuChE (in words)” value in data set [2] was “poorly active”.
With `Cc1ccc(C(C)C)cc1.Cc1cccc(=S)n1[O-].[Cl-].[Ru+2]` [Compound 1e], the “stability under enzymatic assay conditions (1H NMR)” value in data set [15] (6.25% EtOH-d6/D2O, 80.2 mM K2HPO4 and 19.8 mM KH2PO4, immediately and after one hour) is recorded as “remain stable”. For the same molecule, the “stability in D2O containing 140 mM NaCl (1H NMR)” value in data set [15] (after one day) is on record as “negligible changes”. In data set [15] (immediately and after three days), the “stability in D2O (1H NMR)” value was “remain the main present species”. Further, the IC50 was 5.1 ± 0.4 µM in data set [1] (setting [16]) and 0.7 ± 0.1 µM in data set [2] (setting [17]). In addition, the Ki in data set [1] stood at 4.9 µM; in data set [2] it was 3.4 µM.
Regarding `On1ccccc1=S` [a, 1-hydroxypyridine-2(1H)-thione], the IC50 in data set [1] (setting [18]) and in data set [2] (setting [19]) was greater than 100 µM throughout.

The values above are taken from PMC7460603 (International Journal of Molecular Sciences, 2020).
